Measured values as given in patent US20250066389A1, “HETEROCYCLIC AMIDES AND METHODS OF USING THE SAME” (Rgenta Therapeutics, Inc., priority 2021, published 2025).

tested on: PMS1; assay: Mini-Gene Reporter Assay—PMS1 (firefly luciferase mini-gene reporter transiently transfected into HEK293 cells); assay type: cell-based; details: Homo sapiens; at 5 uM; mini-gene firefly luciferase reporter in HEK293 cells; read-out: PMS1 % Effect at 5 uM
How it was run: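 HEK293 cells transiently transfected with a mini-gene construct (skipped exon with flanking introns/exons fused to firefly luciferase, pcDNA3.1) are incubated with compounds in duplicate. Exon inclusion raises luminescence; EC50 fitted by Levenberg-Marquardt; effect also scored at 5 μM.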

SMILES	activation at 5 µM [%]
CCOc1cn2nc(C)cc2cc1C(=O)Nc1cnc(NCC2(F)CC(N)C2)cn1 (stereo not drawn) [Compound 493]	< 50
CCOc1cn2nc(C)cc2cc1C(=O)Nc1cnc(NC2CCCCC23CCNC3)cn1 (stereo not drawn) [Compound 494]	< 50
CCOc1cn2nc(C)cc2cc1C(=O)Nc1cnc(NCC2CNCC23CC3)cn1 (stereo not drawn) [Compound 496]	> 75
CCOc1cn2nc(C)cc2cc1C(=O)Nc1cnc(NC2CCC3CC2CN3)cn1 (stereo not drawn) [Compound 497]	> 75
CCOc1cn2nc(C)cc2cc1C(=O)Nc1cnc(N2CCCCC3(CCNC3)C2)cn1 (stereo not drawn) [Compound 499]	< 50
CCOc1cn2nc(C)cc2cc1C(=O)Nc1cnc(NC2CNCC2(C)C)cn1 (stereo not drawn) [Compound 500]	< 50
CCOc1cn2nc(C)cc2cc1C(=O)Nc1cnc(N2CCC(N)(CC)CC2)cn1 [Compound 502]	> 75
CCOc1cn2nc(C)cc2cc1C(=O)Nc1cnc(N2CC(NC)C(C)(C)C2)cn1 (stereo not drawn) [Compound 503]	> 75
CCOc1cn2nc(C)cc2cc1C(=O)Nc1cnc(N2CCC(C3(O)CCNCC3)CC2)cn1 [Compound 505]	50 to 75
CCOc1cn2nc(C)cc2cc1C(=O)Nc1cnc(N2CCC(n3ncc4c3CNC4)CC2)cn1 [Compound 507]	< 50
CCOc1cn2nc(C)cc2cc1C(=O)Nc1cnc(NC2CNCC23CCC3)cn1 (stereo not drawn) [Compound 509]	< 50
CCOc1cn2nc(C)cc2cc1C(=O)Nc1cnc(N2CCOC3(CCCNC3)C2)cn1 (stereo not drawn) [Compound 510]	< 50
CCOc1cn2nc(C)cc2cc1C(=O)Nc1cnc(NC2CCN(C(=O)CCCNC)CC2)cn1 [Compound 513]	< 50
CCOc1cn2nc(C)cc2cc1C(=O)Nc1cnc(NCC[C@@H]2CCNC2)cn1 [Compound 516]	< 50
CCOc1cn2nc(C)cc2cc1C(=O)Nc1cnc(N2CCC(NCC3CC3)CC2)cn1 [Compound 517]	> 75
CCOc1cn2nc(C)cc2cc1C(=O)Nc1cnc(NC(CNC)Cc2ccccc2)cn1 (stereo not drawn) [Compound 518]	< 50
CCOc1cn2nc(C)cc2cc1C(=O)Nc1cnc(N(C)C[C@@H]2CCCCN2)cn1 [Compound 519]	> 75
CCOc1cn2nc(C)cc2cc1C(=O)Nc1cnc(N2CCCC(C)(CN)C2)cn1 (stereo not drawn) [Compound 522]	< 50
CCOc1cn2nc(C)cc2cc1C(=O)Nc1cnc(N2CCC(COC3CCNC3)CC2)cn1 (stereo not drawn) [Compound 523]	< 50
CCOc1cn2nc(C)cc2cc1C(=O)Nc1cnc(N2CCN(CC3CCCNC3)CC2)cn1 (stereo not drawn) [Compound 524]	< 50
CCOc1cn2nc(C)cc2cc1C(=O)Nc1cnc(N2CCCC2CNC)cn1 (stereo not drawn) [Compound 525]	50 to 75
CCOc1cn2nc(C)cc2cc1C(=O)Nc1cnc(N(C)C[C@@H]2CCCN2)cn1 [Compound 526]	> 75
CCOc1cn2nc(C)cc2cc1C(=O)Nc1cnc(N2CCC(CCNC)CC2)cn1 [Compound 527]	< 50
CCOc1cn2nc(C)cc2cc1C(=O)Nc1cnc(NCC2(C)CCNC2)cn1 (stereo not drawn) [Compound 528]	< 50
CCOc1cn2nc(C)cc2cc1C(=O)Nc1cnc(N2CCOC3(CCNC3)C2)cn1 (stereo not drawn) [Compound 529]	50 to 75
CCOc1cn2nc(C)cc2cc1C(=O)Nc1cnc(N2CCC3(CCCN3)CC2)cn1 [Compound 530]	> 75

SMILES	activation at 5 µM [%]
CCOc1cn2nc(C)cc2cc1C(=O)Nc1cnc(NCCNCCOC)cn1 [Compound 531]	< 50
CCOc1cn2nc(C)cc2cc1C(=O)Nc1cnc(NC[C@@H]2CC(F)(F)CN2)cn1 [Compound 532]	< 50
CCOc1cn2nc(C)cc2cc1C(=O)Nc1cnc(N2CC3CNCC(C3)C2)cn1 [Compound 533]	< 50
CCOc1cn2nc(C)cc2cc1C(=O)Nc1cnc(N(C)CC2CCCN2)cn1 (stereo not drawn) [Compound 534]	50 to 75
CCOc1cn2nc(C)cc2cc1C(=O)Nc1cnc(N2CC(N)CC(O)C2)cn1 (stereo not drawn) [Compound 535]	> 75
CCOc1cn2nc(C)cc2cc1C(=O)Nc1cnc(NCC2(F)CNC2)cn1 [Compound 536]	< 50
CCOc1cn2nc(C)cc2cc1C(=O)Nc1cnc(NC2COC3(CNC3)C2)cn1 (stereo not drawn) [Compound 537]	< 50
CCOc1cn2nc(C)cc2cc1C(=O)Nc1cnc(N(C)CC2CCNC2)cn1 (stereo not drawn) [Compound 538]	50 to 75
CCOc1cn2nc(C)cc2cc1C(=O)Nc1cnc(NC[C@@H]2C[C@H](F)CN2)cn1 [Compound 539]	< 50
CCCC[C@H]1CN(c2cnc(NC(=O)c3cc4cc(C)nn4cc3OCC)cn2)CCN1 [Compound 540]	> 75
CCOc1cn2nc(C)cc2cc1C(=O)Nc1cnc(N2CC(N3CCNCC3)C2)cn1 [Compound 541]	< 50
CCOc1cn2nc(C)cc2cc1C(=O)Nc1cnc(N2CCC3(CC2)CNCCO3)cn1 [Compound 542]	< 50
CCOc1cn2nc(C)cc2cc1C(=O)Nc1cnc(N2CCCC(CCN)C2)cn1 (stereo not drawn) [Compound 544]	< 50
CCOc1cn2nc(C)cc2cc1C(=O)Nc1cnc(N2CCOC3(CCNCC3)C2)cn1 [Compound 545]	< 50
CCOc1cn2nc(C)cc2cc1C(=O)Nc1cnc(N2CCC(NC)C2)cn1 (stereo not drawn) [Compound 546]	> 75
CCOc1cn2nc(C)cc2cc1C(=O)Nc1cnc(N2C[C@H]3CNC[C@H]3C2)cn1 [Compound 547]	> 75
CCOc1cn2nc(C)cc2cc1C(=O)Nc1cnc(N2CC3(CCNCC3)C2)cn1 [Compound 548]	> 75
CCOc1cn2nc(C)cc2cc1C(=O)Nc1cnc(N2C[C@@H]3C[C@H]2CN3)cn1 [Compound 549]	> 75
CCOc1cn2nc(C)cc2cc1C(=O)Nc1cnc(NCC2CCNC2)cn1 (stereo not drawn) [Compound 550]	> 75
CCOc1cn2nc(C)cc2cc1C(=O)Nc1cnc(N(C)C2CCNC2)cn1 (stereo not drawn) [Compound 551]	> 75
CCOc1cn2nc(C)cc2cc1C(=O)Nc1cnc(NCCNC)cn1 [Compound 552]	> 75
CCOc1cn2nc(C)cc2cc1C(=O)Nc1cnc(N2CCC(NC)CC2)cn1 [Compound 553]	> 75
CCOc1cn2nc(C)cc2cc1C(=O)Nc1cnc(N[C@H]2CCCNC2)cn1 [Compound 554]	> 75
CCOc1cn2nc(C)cc2cc1C(=O)Nc1cnc(NCC2CCNCC2)cn1 [Compound 555]	< 50
CCOc1cn2nc(C)cc2cc1C(=O)Nc1cnc(N2CCC(N)C2)cn1 (stereo not drawn) [Compound 556]	> 75
CCOc1cn2nc(C)cc2cc1C(=O)Nc1cnc(N2CCC(N)CC2)cn1 [Compound 557]	> 75

SMILES	activation at 5 µM [%]
CCOc1cn2nc(C)cc2cc1C(=O)Nc1cnc(N(C)C2CCNCC2)cn1 [Compound 558]	> 75
CCOc1cn2nc(C)cc2cc1C(=O)Nc1cnc(NC2CCNCC2)cn1 [Compound 559]	> 75
CCOc1cn2nc(C)cc2cc1C(=O)Nc1cnc(N2CCCNCC2)cn1 [Compound 561]	> 75
CCOc1cn2nc(C)cc2cc1C(=O)Nc1cnc(NCC2C=CCN2)nc1 (stereo not drawn) [Compound 562]	< 50
CCOc1cn2nc(C)cc2cc1C(=O)Nc1cnc(NCCCC2CCCN2)nc1 (stereo not drawn) [Compound 563]	< 50
CCOc1cn2nc(C)cc2cc1C(=O)Nc1cnc(N2CCC(N)(CC)CC2)nc1 [Compound 564]	< 50
CCOc1cn2nc(C)cc2cc1C(=O)Nc1cnc(NCC2CNC(C)C2)nc1 (stereo not drawn) [Compound 566]	< 50
CCOc1cn2nc(C)cc2cc1C(=O)Nc1cnc(NCCC2CC(F)(F)CN2)nc1 (stereo not drawn) [Compound 567]	< 50
CCOc1cn2nc(C)cc2cc1C(=O)Nc1cnc(N2CCC(N)(c3cccc(F)c3)C2)nc1 (stereo not drawn) [Compound 568]	< 50
CCOc1cn2nc(C)cc2cc1C(=O)Nc1cnc(NCC(N)c2cc(F)cc(Cl)c2)nc1 (stereo not drawn) [Compound 569]	< 50
CCOc1cn2nc(C)cc2cc1C(=O)Nc1cnc(NCC(N)c2ccc(F)cc2)nc1 (stereo not drawn) [Compound 570]	< 50
CCOc1cn2nc(C)cc2cc1C(=O)Nc1cnc(N2CC(N)C(C)(C)C2)nc1 (stereo not drawn) [Compound 571]	< 50
CCOc1cn2nc(C)cc2cc1C(=O)Nc1cnc(N2CCC3(CNCCO3)C2)nc1 (stereo not drawn) [Compound 572]	< 50
CCOc1cn2nc(C)cc2cc1C(=O)Nc1cnc(N2CCCC(C)(CN)C2)nc1 (stereo not drawn) [Compound 573]	< 50
CCOc1cn2nc(C)cc2cc1C(=O)Nc1cnc(N2CCCC2CNC)nc1 (stereo not drawn) [Compound 574]	< 50
CCOc1cn2nc(C)cc2cc1C(=O)Nc1cnc(N(C)C[C@H]2CCCN2)nc1 [Compound 575]	< 50
CCOc1cn2nc(C)cc2cc1C(=O)Nc1cnc(N(C)C[C@@H]2CCCN2)nc1 [Compound 576]	< 50
CCOc1cn2nc(C)cc2cc1C(=O)Nc1cnc(N2CCOC3(CCNC3)C2)nc1 (stereo not drawn) [Compound 577]	< 50
CCOc1cn2nc(C)cc2cc1C(=O)Nc1cnc(N2CCCC3(CCNC3)C2)nc1 (stereo not drawn) [Compound 578]	< 50
CCOc1cn2nc(C)cc2cc1C(=O)Nc1cnc(N2CCC3(CCCN3)CC2)nc1 [Compound 579]	> 75
CCOc1cn2nc(C)cc2cc1C(=O)Nc1cnc(N(C)CC2CCCN2)nc1 (stereo not drawn) [Compound 581]	< 50
CCOc1cn2nc(C)cc2cc1C(=O)Nc1cnc(N(C)CCN2CCNCC2)nc1 [Compound 582]	< 50
CCOc1cn2nc(C)cc2cc1C(=O)Nc1cnc(N(C)CC2CCNC2)nc1 (stereo not drawn) [Compound 583]	< 50
CCOc1cn2nc(C)cc2cc1C(=O)Nc1cnc(N2CCC3(CC2)CNCCO3)nc1 [Compound 584]	< 50
CCOc1cn2nc(C)cc2cc1C(=O)Nc1cnc(N2CCOC3(CCNCC3)C2)nc1 [Compound 587]	< 50
CCOc1cn2nc(C)cc2cc1C(=O)Nc1cnc(NCCC2CCCCN2)nc1 (stereo not drawn) [Compound 588]	< 50
